Source: BindingDB's records for doi:10.7270/Q2GH9GBT (Nmmlsc, 2008)

target: T1, Bcl-2-like protein 10 [11-204] (Homo sapiens, UniProt Q9HD36); experiment: modulators of Bcl-B/Bim peptide interaction – biochemical, multiplexed, bead-based flow cytometry, human, dose response (AID 1327); conditions: not given
T1 construct: 11-204
T1 sequence (Q9HD36 whole entry): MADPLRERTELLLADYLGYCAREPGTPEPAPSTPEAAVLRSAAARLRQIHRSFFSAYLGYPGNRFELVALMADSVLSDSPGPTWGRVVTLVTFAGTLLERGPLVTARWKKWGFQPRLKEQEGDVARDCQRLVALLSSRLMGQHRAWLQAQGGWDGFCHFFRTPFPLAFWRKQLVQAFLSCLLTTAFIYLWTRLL

EC50 [µM] | SMILES
9.23 | Cc1ccc(C=NNC(=O)CSc2nnc(-c3ccc(Cl)cc3)n2-c2ccccc2)o1 [SMR000218122]
35.7 | Clc1nc2ccccc2cc1CN=Nc1nc2ccccc2[nH]1 [SMR000221568]

same assay, conditions: inactive by the depositor's call

SMILES | EC50 [µM]
Nc1c(C(=O)NCC2CCCO2)sc2nc3c(c(-c4ccco4)c12)CC/C3=C\c1ccco1 (centres undefined) [SMR000259502] | 13.7
Nc1c(C(=O)NC2CC2)sc2nc3c(c(-c4ccco4)c12)CC/C3=C/c1ccco1 [SMR000259554] | 10.4
Cc1nnc2ccc(-c3cccc(NC(=O)c4ccco4)c3)nn12 [SMR000324305] | 3.53
O=C(Nc1cccc(Cl)c1)Nc1ccnc(-c2cccnc2)n1 [SMR000337179] | 1.11
CN(N=Cc1ccncc1)C1=NS(=O)(=O)c2ccccc21 [isonicotinaldehyde (1,1-dioxido-1,2-benzisothiazol-3-yl)(methyl)hydrazone] | 1.82

Results, then the compound that gave them:

EC50 [µM] | SMILES
16.4 | COc1ccc(OC)c(-n2c(=O)c3ccccc3c3ccccc3c2=O)c1 [SMR000236434]
11.2 | CCOC(=O)c1nc(Nc2ccc(C(=O)OC)cc2)c2ccccc2n1 [ethyl 4-(4-methoxycarbonylanilino)quinazoline-2-carboxylate]
